# Reference: PubChem BioAssay (NCI)
#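 Assay format: 96-well plates, 48-hour exposure. TGI: total growth inhibition.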
# Tests used:
# Assay in all cases: NCI-60 cell line screen, 48 h
# 786-0 renal = tested on: 786-0 renal
# A498 renal = tested on: A498 renal
# A549 NSCLC = tested on: A549 NSCLC
# ACHN renal = tested on: ACHN renal
# BT-549 breast = tested on: BT-549 breast
# CAKI-1 renal = tested on: CAKI-1 renal
# CCRF-CEM leukemia = tested on: CCRF-CEM leukemia
# COLO 205 colon = tested on: COLO 205 colon
# DU-145 prostate = tested on: DU-145 prostate
# EKVX NSCLC = tested on: EKVX NSCLC
# HCC-2998 colon = tested on: HCC-2998 colon
# HCT-116 colon = tested on: HCT-116 colon
# HCT-15 colon = tested on: HCT-15 colon
# HL-60(TB) leukemia = tested on: HL-60(TB) leukemia
# HOP-62 NSCLC = tested on: HOP-62 NSCLC
# HOP-92 NSCLC = tested on: HOP-92 NSCLC
# HS 578T breast = tested on: HS 578T breast
# HT29 colon = tested on: HT29 colon
# IGROV1 ovarian = tested on: IGROV1 ovarian
# K-562 leukemia = tested on: K-562 leukemia
# KM12 colon = tested on: KM12 colon
# LOX IMVI melanoma = tested on: LOX IMVI melanoma
# M14 melanoma = tested on: M14 melanoma
# MCF7 breast = tested on: MCF7 breast
# MDA-MB-231 breast = tested on: MDA-MB-231 breast
# MDA-MB-435 = tested on: MDA-MB-435
# MDA-N = tested on: MDA-N
# MOLT-4 leukemia = tested on: MOLT-4 leukemia
# NCI-H226 lung = tested on: NCI-H226 lung
# NCI-H23 lung = tested on: NCI-H23 lung
# NCI-H460 lung = tested on: NCI-H460 lung
# NCI-H522 lung = tested on: NCI-H522 lung
# NCI/ADR-RES ovarian = tested on: NCI/ADR-RES ovarian
# OVCAR-3 ovarian = tested on: OVCAR-3 ovarian
# OVCAR-4 ovarian = tested on: OVCAR-4 ovarian
# OVCAR-5 ovarian = tested on: OVCAR-5 ovarian
# OVCAR-8 ovarian = tested on: OVCAR-8 ovarian
# PC-3 prostate = tested on: PC-3 prostate
# RPMI-8226 leukemia = tested on: RPMI-8226 leukemia
# RXF 393 renal = tested on: RXF 393 renal
# SF-268 CNS = tested on: SF-268 CNS
# SK-MEL-2 melanoma = tested on: SK-MEL-2 melanoma
# SK-MEL-28 melanoma = tested on: SK-MEL-28 melanoma
# SK-MEL-5 melanoma = tested on: SK-MEL-5 melanoma
# SK-OV-3 ovarian = tested on: SK-OV-3 ovarian
# SN12C renal = tested on: SN12C renal
# SNB-19 CNS = tested on: SNB-19 CNS
# SNB-75 CNS = tested on: SNB-75 CNS
# SR leukemia = tested on: SR leukemia
# SW-620 colon = tested on: SW-620 colon
# T-47D breast = tested on: T-47D breast
# TK-10 renal = tested on: TK-10 renal
# U251 CNS = tested on: U251 CNS
# UACC-257 melanoma = tested on: UACC-257 melanoma
# UACC-62 melanoma = tested on: UACC-62 melanoma
# UO-31 renal = tested on: UO-31 renal
# MALME-3M melanoma = tested on: MALME-3M melanoma
# SF-295 CNS = tested on: SF-295 CNS
# SF-539 CNS = tested on: SF-539 CNS
compound,measurement,setting,value
O=C1O/C(=C\c2ccccc2)N(c2ccccc2)C1=O,TGI,786-0 renal,> 100 µM
same,TGI,A498 renal,> 100 µM
same,TGI,A549 NSCLC,> 100 µM
same,TGI,ACHN renal,> 100 µM
same,TGI,BT-549 breast,> 100 µM
same,TGI,CAKI-1 renal,> 100 µM
same,TGI,CCRF-CEM leukemia,> 100 µM
same,TGI,COLO 205 colon,> 100 µM
same,TGI,DU-145 prostate,> 100 µM
same,TGI,EKVX NSCLC,> 100 µM
same,TGI,HCC-2998 colon,> 100 µM
same,TGI,HCT-116 colon,> 100 µM
same,TGI,HCT-15 colon,> 100 µM
same,TGI,HL-60(TB) leukemia,> 100 µM
same,TGI,HOP-62 NSCLC,> 100 µM
same,TGI,HOP-92 NSCLC,> 100 µM
same,TGI,HS 578T breast,> 100 µM
same,TGI,HT29 colon,> 100 µM
same,TGI,IGROV1 ovarian,> 100 µM
same,TGI,K-562 leukemia,> 100 µM
same,TGI,KM12 colon,> 100 µM
same,TGI,LOX IMVI melanoma,> 100 µM
same,TGI,M14 melanoma,> 100 µM
same,TGI,MCF7 breast,> 100 µM
same,TGI,MDA-MB-231 breast,> 100 µM
same,TGI,MDA-MB-435,> 100 µM
same,TGI,MDA-N,> 100 µM
same,TGI,MOLT-4 leukemia,> 100 µM
same,TGI,NCI-H226 lung,> 100 µM
same,TGI,NCI-H23 lung,> 100 µM
same,TGI,NCI-H460 lung,> 100 µM
same,TGI,NCI-H522 lung,> 100 µM
same,TGI,NCI/ADR-RES ovarian,> 100 µM
same,TGI,OVCAR-3 ovarian,> 100 µM
same,TGI,OVCAR-4 ovarian,> 100 µM
same,TGI,OVCAR-5 ovarian,> 100 µM
same,TGI,OVCAR-8 ovarian,> 100 µM
same,TGI,PC-3 prostate,> 100 µM
same,TGI,RPMI-8226 leukemia,> 100 µM
same,TGI,RXF 393 renal,> 100 µM
same,TGI,SF-268 CNS,> 100 µM
same,TGI,SK-MEL-2 melanoma,> 100 µM
same,TGI,SK-MEL-28 melanoma,> 100 µM
same,TGI,SK-MEL-5 melanoma,> 100 µM
same,TGI,SK-OV-3 ovarian,> 100 µM
same,TGI,SN12C renal,> 100 µM
same,TGI,SNB-19 CNS,> 100 µM
same,TGI,SNB-75 CNS,> 100 µM
same,TGI,SR leukemia,> 100 µM
same,TGI,SW-620 colon,> 100 µM
same,TGI,T-47D breast,> 100 µM
same,TGI,TK-10 renal,> 100 µM
same,TGI,U251 CNS,> 100 µM
same,TGI,UACC-257 melanoma,> 100 µM
same,TGI,UACC-62 melanoma,> 100 µM
same,TGI,UO-31 renal,> 100 µM
COc1cc(S(=O)(=O)Nc2nc(-c3ccc(N4C(=O)/C(=C/C=C/c5ccccc5)N=C4c4ccccc4)cc3)cs2)ccc1Cl,TGI,786-0 renal,> 100 µM
same,TGI,A498 renal,> 100 µM
same,TGI,A549 NSCLC,> 100 µM
same,TGI,ACHN renal,> 100 µM
same,TGI,BT-549 breast,94 µM
same,TGI,CAKI-1 renal,> 100 µM
same,TGI,CCRF-CEM leukemia,> 100 µM
same,TGI,COLO 205 colon,> 100 µM
same,TGI,DU-145 prostate,> 100 µM
same,TGI,HCT-116 colon,> 100 µM
same,TGI,HCT-15 colon,> 100 µM
same,TGI,HL-60(TB) leukemia,> 100 µM
same,TGI,HOP-62 NSCLC,> 100 µM
same,TGI,HOP-92 NSCLC,> 100 µM
same,TGI,HS 578T breast,> 100 µM
same,TGI,HT29 colon,> 100 µM
same,TGI,IGROV1 ovarian,> 100 µM
same,TGI,K-562 leukemia,> 100 µM
same,TGI,KM12 colon,> 100 µM
same,TGI,LOX IMVI melanoma,> 100 µM
same,TGI,M14 melanoma,> 100 µM
same,TGI,MALME-3M melanoma,> 100 µM
same,TGI,MCF7 breast,> 100 µM
same,TGI,MDA-MB-231 breast,> 100 µM
same,TGI,MDA-MB-435,> 100 µM
same,TGI,MDA-N,> 100 µM
same,TGI,MOLT-4 leukemia,> 100 µM
same,TGI,NCI-H226 lung,> 100 µM
same,TGI,NCI-H23 lung,> 100 µM
same,TGI,NCI-H460 lung,> 100 µM
same,TGI,NCI-H522 lung,> 100 µM
same,TGI,NCI/ADR-RES ovarian,> 100 µM
same,TGI,OVCAR-3 ovarian,> 100 µM
same,TGI,OVCAR-4 ovarian,> 100 µM
same,TGI,OVCAR-5 ovarian,> 100 µM
same,TGI,OVCAR-8 ovarian,> 100 µM
same,TGI,PC-3 prostate,> 100 µM
same,TGI,RXF 393 renal,> 100 µM
same,TGI,SF-268 CNS,> 100 µM
same,TGI,SF-295 CNS,> 100 µM
same,TGI,SF-539 CNS,> 100 µM
same,TGI,SK-MEL-2 melanoma,> 100 µM
same,TGI,SK-MEL-28 melanoma,> 100 µM
same,TGI,SK-MEL-5 melanoma,> 100 µM
same,TGI,SK-OV-3 ovarian,> 100 µM
same,TGI,SN12C renal,> 100 µM
same,TGI,SNB-19 CNS,> 100 µM
same,TGI,SNB-75 CNS,> 100 µM
same,TGI,SR leukemia,> 100 µM
same,TGI,SW-620 colon,> 100 µM
same,TGI,T-47D breast,> 100 µM
same,TGI,TK-10 renal,> 100 µM
same,TGI,U251 CNS,> 100 µM
same,TGI,UACC-257 melanoma,> 100 µM
same,TGI,UACC-62 melanoma,> 100 µM
same,TGI,UO-31 renal,> 100 µM
